Earlier results as cited in PubChem BioAssay AID1259409 (Chemical Carcinogenesis Research Information System (CCRIS), 2018).

Test system: rodent chemically induced tumor inhibition, incidence and multiplicity
Experiment: CCRIS tumor inhibitor studies
Settings: Route [Inhibitor]: ORAL

## Cn1c(=O)c2c(ncn2C)n(C)c1=O
Carcinogen: 2-AMINO-1-METHYL-6-PHENYLIMIDAZO[4,5-B]PYRIDINE [105650-23-5], Dose [Inhibitor]: 0.1% IN DRINKING WATER FOR 54 WK (STUDY DURATION: 54 WK), Species: RAT, Strain/Sex: F344/DUCRJ/FEMALE, Target Tissue: Type of Lesion: MAMMARY GLAND: ADENOMA OR ADENOCARCINOMA, Dose [Carcinogen]: 0.02% IN DIET FOR 54 WK (STUDY DURATION: 54 WK), Promoter: NONE
  tumour outcome (control, treated, inhibition, significance): 8/20 (40%), 2/20 (10%), 75%, p<0.05
Carcinogen: 4-(METHYLNITROSAMINO)-1-(3-PYRIDYL)-1-BUTANONE, 64091-91-4, Dose [Inhibitor]: 0, 1120 MG IN DRINKING WATER FOR 13 WK BEGINNING 2 WK PRIOR TO CARCINOGEN TREATMENT (STUDY DURATION: 18 WK), Species: MOUSE, Strain/Sex: STRAIN-A/FEMALE, Target Tissue: Type of Lesion: LUNG: ADENOMA, Dose [Carcinogen]: 11.65 MG/KG 3/WK FOR 10 WK, Promoter: NONE USED
  tumour outcome (control, treated, inhibition, significance): 100%, 100%, 0%, not significant
Carcinogen: 4-(METHYLNITROSAMINO)-1-(3-PYRIDYL-1-BUTANONE), 64091-91-4, Dose [Inhibitor]: 0, 170 PPM IN DRINKING WATER FOR 22WK BEGINNING 1 WK PRIOR TO CARCINOGEN TREATMENT (STUDY DURATION:101 WK), Species: RAT, Strain/Sex: F344/MALE, Target Tissue: Type of Lesion: LIVER: TUMOR, Dose [Carcinogen]: 1.5 MG/KG 3/WK FOR 20 WK, Promoter: NONE USED
  tumour outcome (control, treated, inhibition, significance): 11/32 (34%), 5/20 (25%), 26%, not significant
Carcinogen: 4-(METHYLNITROSAMINO)-1-(3-PYRIDYL-1-BUTANONE), 64091-91-4, Dose [Inhibitor]: 0, 170 PPM IN DRINKING WATER FOR 22 WK BEGINNING 1 WK PRIOR TO CARCINOGEN TREATMENT (STUDY DURATION:101 WK), Species: RAT, Strain/Sex: F344/MALE, Target Tissue: Type of Lesion: LUNG:TUMOR, Dose [Carcinogen]: 1.5 MG/KG 3/WK FOR 20 WK, Promoter: NONE USED
  tumour outcome (control, treated, inhibition, significance): 15/32 (47%), 4/20 (20%), 57%, not significant
Carcinogen: 4-(METHYLNITROSAMINO)-1-(3-PYRIDYL-1-BUTANONE), 64091-91-4, Dose [Inhibitor]: 0, 170 PPM IN DRINKING WATER FOR 22 WK BEGINNING 1 WK PRIOR TO CARCINOGEN TREATMENT (STUDY DURATION:101 WK), Species: RAT, Strain/Sex: F344/MALE, Target Tissue: Type of Lesion: NASAL CAVITY: TUMOR, Dose [Carcinogen]: 1.5 MG/KG 3/WK FOR 20 WK, Promoter: NONE USED
  tumour outcome (control, treated, inhibition, significance): 6/32 (19%), 3/20 (15%), 21%, not significant
Carcinogen: 4-(METHYLNITROSAMINO)-1-(3-PYRIDYL-1-BUTANONE), 64091-91-4, Dose [Inhibitor]: 0, 680 PPM IN DRINKING WATER FOR 22 WK BEGINNING 1 WK PRIOR TO CARCINOGEN TREATMENT (STUDY DURATION:101 WK), Species: RAT, Strain/Sex: F344/MALE, Target Tissue: Type of Lesion: LUNG:TUMOR, Dose [Carcinogen]: 1.5 MG/KG 3/WK FOR 20 WK, Promoter: NONE USED
  tumour outcome (control, treated, inhibition, significance): 15/32 (47%), 2/20 (10%), 79%, p<0.01
Carcinogen: 4-(METHYLNITROSAMINO)-1-(3-PYRIDYL-1-BUTANONE), 64091-91-4, Dose [Inhibitor]: 0, 680 PPM IN DRINKING WATER FOR 22 WK BEGINNING 1 WK PRIOR TO CARCINOGEN TREATMENT (STUDY DURATION: 101 WK), Species: RAT, Strain/Sex: F344/MALE, Target Tissue: Type of Lesion: NASAL CAVITY: TUMOR, Dose [Carcinogen]: 1.5 MG/KG 3/WK FOR 20 WK, Promoter: NONE USED
  tumour outcome (control, treated, inhibition, significance): 6/32 (19%), 5/20 (25%), -32%, not significant
Carcinogen: 4-METHYLNITROSAMINO-1-(3-PYRIDYL)-1-BUTANONE, 64091-91-4, Dose [Inhibitor]: 0, 1120 PPM IN DRINKING WATER 2 WK PRIOR TO CARCINOGEN AND CONTINUING FOR 13 WK (STUDY DURATION: 29 WK), Species: MOUSE, Strain/Sex: A/J/FEMALE, Target Tissue: Type of Lesion: LUNG: ADENOMA, Dose [Carcinogen]: 11.65 MG/KG IN CORN OIL 3/WK FOR 10 WK, Promoter: NONE USED
  tumour outcome (control, treated, inhibition, significance): 100%, 100%, 0%, not significant
Carcinogen: 7,12-DIMETHYLBENZ[A]ANTHRACENE, 57-97-6, Dose [Inhibitor]: 0, 500 MG/L IN DRINKING WATER BEGINNING AT 27 D OF AGE AND CONTINUING TO 59 D OF AGE (STUDY DURATION: 52 WK), Species: RAT, Strain/Sex: SPRAGUE-DAWLEY/FEMALE, Target Tissue: Type of Lesion: MAMMARY GLAND: BENIGN TUMOR, Dose [Carcinogen]: 0.5 MG/100 G BW ONCE AT 55 D OF AGE, Promoter: NONE USED
  tumour outcome (control, treated, inhibition, significance): 71/73 (97%), 65/70 (93%), 4%, not significant
Carcinogen: 7,12-DIMETHYLBENZ[A]ANTHRACENE, 57-97-6, Dose [Inhibitor]: 0, 500 MG/L IN DRINKING WATER BEGINNING AT 27 D OF AGE AND CONTINUING TO 59 D OF AGE (STUDY DURATION: 52 WK), Species: RAT, Strain/Sex: SPRAGUE-DAWLEY/FEMALE, Target Tissue: Type of Lesion: MAMMARY GLAND: CARCINOMA, Dose [Carcinogen]: 0.5 MG/100 G BW ONCE AT 55 D OF AGE, Promoter: NONE USED
  tumour outcome (control, treated, inhibition, significance): 42/73 (58%), 20/70 (29%), 50%, p<0.001
Carcinogen: 7,12-DIMETHYLBENZ[A]ANTHRACENE, 57-97-6, Dose [Inhibitor]: 0, 500 MG/L IN DRINKING WATER BEGINNING AT 59 D OF AGE AND CONTINUING FOR DURATION OF STUDY (STUDY DURATION: 48 WK), Species: RAT, Strain/Sex: SPRAGUE-DAWLEY/FEMALE, Target Tissue: Type of Lesion: MAMMARY GLAND: BENIGN TUMOR, Dose [Carcinogen]: 0.5 MG/100 G BW ONCE AT 55 D OF AGE, Promoter: NONE USED
  tumour outcome (control, treated, inhibition, significance): 70/72 (97%), 55/62 (89%), 8%, p,0.05
Carcinogen: 7,12-DIMETHYLBENZ[A]ANTHRACENE, 57-97-6, Dose [Inhibitor]: 0, 500 MG/L IN DRINKING WATER BEGINNING AT 59 D OF AGE AND CONTINUING FOR DURATION OF STUDY (STUDY DURATION: 48 WK), Species: RAT, Strain/Sex: SPRAGUE-DAWLEY/FEMALE, Target Tissue: Type of Lesion: MAMMARY GLAND: CARCINOMA, Dose [Carcinogen]: 0.5 MG/100 G BW ONCE AT 55 D OF AGE, Promoter: NONE USED
  tumour outcome (control, treated, inhibition, significance): 39/72 (54%), 31/62 (50%), 7%, not significant
Carcinogen: 7,12-DIMETHYLBENZ[A]ANTHRACENE, 57-97-6, Dose [Inhibitor]: 0, 500 MG/L IN DRINKING WATER OF 58 DAY OLD VIRGIN RATS (STUDY DURATION: 56 WK), Species: RAT, Strain/Sex: SPRAGUE-DAWLEY/FEMALE, Target Tissue: Type of Lesion: MAMMARY GLAND: CARCINOMA, Dose [Carcinogen]: 2 MG/100 G BW ONCE AT 55 D OF AGE, Promoter: NONE USED
  tumour outcome (control, treated, inhibition, significance): 95%, 100%, -5%, not significant
